Experimental data from patent US9320760B2, “Compositions and methods of use of compounds to increase cancer patient survival time” (BioNumerik Pharmaceuticals, Inc., priority 2008, dated 2016).
Where two headings read alike, the source gives them in different places.

Legend:
[1] = test system: mammalian thioredoxin reductase (TXR); settings: cited from earlier work
[2] = target: T1, Thioredoxin Reductase + Thioredoxin (Bos taurus, UniProt O97680); assay: NADPH oxidation at 340 nm, coupled thioredoxin (TX)/thioredoxin reductase (TXR)/NADPH system; assay type: biochemical, bovine; settings: Disulfide 0.5 mM; minimum of triplicate assays
T1 sequence (O97680 1-105): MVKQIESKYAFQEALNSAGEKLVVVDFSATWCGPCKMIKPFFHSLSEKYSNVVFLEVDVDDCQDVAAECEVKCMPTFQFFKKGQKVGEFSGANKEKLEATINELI
Description: (§1) Biochemistry 21:6628-6633 (1982).
(§2) Data was then collected and plotted in Microsoft Excel. Error calculations, and graphical representations were performed in Microsoft Excel and Kaleidograph (ver. 3.5). Nonlinear data was graphically rendered using Kaleidograph. ANOVA and other statistical analyses were performed using SAS (ver. 8.2). Unless otherwise noted, significance level was set at 0.05, and error bars represent actual experimental standard deviation.
(§3) It should be noted that for the purposes of FIG. 17 only, thioredoxin is labeled TXR and thioredoxin reductase is labeled TRR.
Table 4, below, illustrates that various Formula (I) compounds (i.e., disulfide-containing compounds) of the present invention can serve as alternate substrate inhibitors for the coupled thioredoxin (TX)/thioredoxin reductase (TXR)/NADPH system as measured by the oxidation of NADPH. In Table 4, the Formula (I) compounds were utilized at a concentration of 0.5 mM.

[3] = target: T2, GR + GSH (Homo sapiens, UniProt P00390); assay: NADPH oxidation, GR + GSH; assay type: biochemical; settings: Disulfide 0.5 mM; n = 6
T2 sequence (P00390 44-522): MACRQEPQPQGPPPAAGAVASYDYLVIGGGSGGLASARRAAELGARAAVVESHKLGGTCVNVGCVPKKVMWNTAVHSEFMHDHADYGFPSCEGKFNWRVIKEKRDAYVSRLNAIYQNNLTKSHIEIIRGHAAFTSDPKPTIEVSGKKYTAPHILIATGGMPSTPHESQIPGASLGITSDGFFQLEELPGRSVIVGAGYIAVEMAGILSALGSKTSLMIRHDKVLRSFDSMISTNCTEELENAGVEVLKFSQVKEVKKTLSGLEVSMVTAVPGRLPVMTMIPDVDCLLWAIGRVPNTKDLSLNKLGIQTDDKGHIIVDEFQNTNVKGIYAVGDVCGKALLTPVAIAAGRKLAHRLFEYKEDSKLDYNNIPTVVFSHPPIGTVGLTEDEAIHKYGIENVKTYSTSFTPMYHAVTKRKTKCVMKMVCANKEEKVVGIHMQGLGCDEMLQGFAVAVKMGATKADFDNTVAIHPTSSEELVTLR
Description: (§4) The Formula (I) compound was utilized at a concentration of 0.5 mM.

[4] = target: T3, GR + GRX + GSH (coupled glutaredoxin/glutathione/glutathione reductase system) (Homo sapiens, UniProt P35754); assay: NADPH oxidation, coupled GRX/GSH/GR system; assay type: biochemical; settings: Disulfide 0.5 mM; n = 6
T3 sequence (P35754 1-106): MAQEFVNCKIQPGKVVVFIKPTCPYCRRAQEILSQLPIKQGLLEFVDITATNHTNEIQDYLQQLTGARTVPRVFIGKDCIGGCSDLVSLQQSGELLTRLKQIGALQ
Description: as §4

[5] = target: T4, Thioredoxin Reductase (Bos taurus, UniProt O62768); assay: NADPH oxidation at 340 nm, thioredoxin reductase only; assay type: biochemical, bovine; settings: Disulfide 0.5 mM; minimum of triplicate assays
T4 sequence (O62768 1-499): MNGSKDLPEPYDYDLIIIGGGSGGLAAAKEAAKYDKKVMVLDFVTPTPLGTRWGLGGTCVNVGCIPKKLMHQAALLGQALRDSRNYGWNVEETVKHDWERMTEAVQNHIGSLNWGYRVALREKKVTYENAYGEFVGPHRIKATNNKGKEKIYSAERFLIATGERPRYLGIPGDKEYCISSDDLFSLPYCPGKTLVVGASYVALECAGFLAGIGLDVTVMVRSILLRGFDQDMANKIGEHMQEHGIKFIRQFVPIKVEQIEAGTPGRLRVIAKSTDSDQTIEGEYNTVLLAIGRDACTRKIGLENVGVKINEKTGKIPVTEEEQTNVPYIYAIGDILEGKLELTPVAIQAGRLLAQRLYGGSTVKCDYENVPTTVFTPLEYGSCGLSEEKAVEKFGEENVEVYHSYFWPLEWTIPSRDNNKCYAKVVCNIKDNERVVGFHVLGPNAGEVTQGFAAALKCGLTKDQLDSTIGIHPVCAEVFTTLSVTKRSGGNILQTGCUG
Description: as §1, §2, §3

[6] = target: T5, glutathione reductase (GR) (Homo sapiens, UniProt P00390); assay: NADPH oxidation, glutathione reductase (GR) alone; assay type: biochemical; settings: for NADPH Oxidation, GR: Disulfide 0.5 mM, n = 6
T5 sequence (P00390 44-522): T2 sequence (P00390 44-522)
Description: as §4

[7] = test system: cellular ribonucleotide reductase in human cancer cells; settings: literature; cited from earlier work
[8] = target: T5, glutathione reductase (GR); settings: cited from earlier work
[9] = test system: ovarian cancer cell lines; assay: cytotoxicity study in combination with oxaliplatin, ovarian cancer cell lines; assay type: cell-based, human; settings: mesna 100 μM in combination with oxaliplatin vs oxaliplatin alone controls
[10] = test system: brain cancer cells; assay: cytotoxicity study in combination with oxaliplatin, brain cancer cells; assay type: cell-based, human; settings: oxaliplatin and mesna, observable but not statistically significant
[11] = test system: non-small cell lung carcinoma (NSCLC) cell lines; assay: cytotoxicity study in combination with chemotherapeutic agents, NSCLC cell lines; assay type: cell-based, human
[12] = test system: whole cells; assay: whole cell mediated disulfide reduction (α-lipoic acid, hydroxyethyldisulfide); assay type: cell-based; settings: mesna in combination with cisplatin
[13] = literature studies, result in words

For `CC1=C(/C=C/C(C)=C/C=C/C(C)=C\C(=O)O)C(C)(C)CCC1` [13-cis-retinoic acid], the “inhibition of TXR” value [1, 13] is listed as “irreversible inhibition”.

In the case of `NC(CSSCCS(=O)(=O)O)C(=O)O` (stereo not shown) [BNP7766], the “NADPH Oxidation, Thioredoxin Reductase + Thioredoxin” value [2] is reported as 14.4 ± 0.2 nmol/min/mL, the “NADPH Oxidation, GR + GSH” value [3] is reported as 4.1 ± 1.3 nmol/min/mL and the “NADPH Oxidation, GR + GRX + GSH” value [4] is reported as 28.3 ± 2.0 nmol/min/mL. For the same compound, the “NADPH Oxidation, Thioredoxin Reductase only” value [5] was 0.2 ± 0.03 nmol/min/mL and the “NADPH Oxidation, GR” value [6] was 0.0 ± 0.01 nmol/min/mL.

In the case of `NC(CCSSCCS(=O)(=O)O)C(=O)O` (stereo not shown) [BNP7768], the “NADPH Oxidation, Thioredoxin Reductase + Thioredoxin” value [2] is reported as 8.6 ± 0.06 nmol/min/mL, the “NADPH Oxidation, GR + GSH” value [3] is reported as 0.88 ± 0.2 nmol/min/mL and the “NADPH Oxidation, GR + GRX + GSH” value [4] is reported as 10.7 ± 0.7 nmol/min/mL. The “NADPH Oxidation, Thioredoxin Reductase only” value [5] was 0.0 ± 0.03 nmol/min/mL and the “NADPH Oxidation, GR” value [6] was 0.16 ± 0.96 nmol/min/mL.

With `N[C@@H](CCC(=O)N[C@@H](CSSCCS(=O)(=O)O)C(=O)NCC(=O)O)C(=O)O` [BNP7772] the “NADPH Oxidation, Thioredoxin Reductase + Thioredoxin” value [2] was 14.1 ± 0.1 nmol/min/mL, the “NADPH Oxidation, GR + GSH” value [3] was 11.3 ± 0.8 nmol/min/mL and the “NADPH Oxidation, GR + GRX + GSH” value [4] was 71.0 ± 7.9 nmol/min/mL. The “NADPH Oxidation, Thioredoxin Reductase only” value [5] was 0.3 ± 0.02 nmol/min/mL, the “NADPH Oxidation, GR” value [6] was 8.0 ± 0.6 nmol/min/mL and the “substrate / alternative substrate inhibitor for glutathione reductase” value ([6]; result in words) was “functions as an alternative substrate inhibitor”.

For `NC(CCC(=O)NC(CSSCCS(=O)(=O)O)C(=O)O)C(=O)O` (stereo not shown) [BNP7774], the “NADPH Oxidation, Thioredoxin Reductase + Thioredoxin” value [2] was 9.6 ± 0.2 nmol/min/mL, the “NADPH Oxidation, GR + GSH” value [3] was 2.4 ± 0.7 nmol/min/mL and the “NADPH Oxidation, GR + GRX + GSH” value [4] was 37.0 ± 2.1 nmol/min/mL. For the same compound, the “NADPH Oxidation, Thioredoxin Reductase only” value [5] was 0.3 ± 0.02 nmol/min/mL and the “NADPH Oxidation, GR” value [6] was 0.04 ± 0.12 nmol/min/mL.

In the case of `N[C@@H](CSSCCS(=O)(=O)O)C(=O)NCC(=O)O` [BNP7776], the “NADPH Oxidation, Thioredoxin Reductase + Thioredoxin” value [2] is reported as 15.8 ± 0.3 nmol/min/mL, the “NADPH Oxidation, GR + GSH” value [3] is reported as 4.1 ± 1.0 nmol/min/mL and the “NADPH Oxidation, GR + GRX + GSH” value [4] is reported as 22.0 ± 0.5 nmol/min/mL. For the same compound, the “NADPH Oxidation, Thioredoxin Reductase only” value [5] was 0.2 ± .04 nmol/min/mL and the “NADPH Oxidation, GR” value [6] was 0.0 ± 0.7 nmol/min/mL.

For `CCOC(=O)NC1=C(N2CC2)C(=O)C(NC(=O)OCC)=C(N2CC2)C1=O` [Diaziquone], the “inhibition of the TR/TXR system resulting in inhibition of cellular ribonucleotide reductase activity” value [7] is given as “concentration-dependent inhibition”.

For `CS(=O)(=O)OCCCCOS(C)(=O)=O` [busulfan], the “inhibition of TXR” value [1, 13] is given as “irreversibly inhibited” and the “inhibition of GR” value [8, 13] is given as “not GR”.

For `N.N.O=C([O-])C1(C(=O)[O-])CCC1.[Pt+2]` [carboplatin], the “inhibition of TXR” value [1, 13] is listed as “could not inhibit” and the “inhibition of GR” value [8, 13] is listed as “could not inhibit”.

For `O=NN(CCCl)C(=O)NCCCl` [carmustine], the “inhibition of TXR” value [1, 13] is listed as “can inhibit” and the “inhibition of GR” value [8, 13] is listed as “can inhibit”.

For `O=C(O)CCCc1ccc(N(CCCl)CCCl)cc1` [chlorambucil], the “inhibition of TXR” value [1, 13] is given as “irreversibly inhibited” and the “inhibition of GR” value [8, 13] is given as “not GR”.

In the case of `N.N.[Cl][Pt][Cl]` [cisplatin, cis-diamminedichloroplatinum], the “inhibition of TXR” value [1, 13] is listed as “irreversibly inhibited” and the “inhibition of GR” value [8, 13] is listed as “not GR”.

In the case of `O=P1(N(CCCl)CCCl)NCCCO1` (stereo not shown) [cyclophosphamide], the “inhibition of TXR” value [1, 13] is listed as “irreversibly inhibited” and the “inhibition of GR” value [8, 13] is listed as “not GR”.

In the case of `COc1cccc2c1C(=O)c1c(O)c3c(c(O)c1C2=O)C[C@@](O)(C(C)=O)C[C@@H]3O[C@H]1C[C@H](N)[C@H](O)[C@H](C)O1` [daunorubicin], the “inhibition of TXR” value [1] is given as “not inhibitors”.

For `COc1cccc2c1C(=O)c1c(O)c3c(c(O)c1C2=O)C[C@@](O)(C(=O)CO)C[C@@H]3O[C@H]1C[C@H](N)[C@H](O)[C@H](C)O1` [doxorubicin], the “inhibition of TXR” value [1, 13] is listed as “not inhibitors” and the “inhibition of the TR/TXR system resulting in inhibition of cellular ribonucleotide reductase activity” value [7] is listed as “concentration-dependent inhibition”.

In the case of `O=P1(NCCCl)OCCCN1CCCl` (stereo not shown) [ifosfamide], the “inhibition of TXR” value [1, 13] is listed as “inhibited”.

In the case of `N[C@@H](Cc1ccc(N(CCCl)CCCl)cc1)C(=O)O` [melphalan], the “inhibition of TXR” value [1, 13] is given as “irreversibly inhibited” and the “inhibition of GR” value [8, 13] is given as “not GR”.

For `O=S(=O)([O-])CCS.[Na+]` [mesna, 2-mercapto ethane sulfonate sodium], the “cytotoxic effect of oxaliplatin” value [9] was “markedly enhanced”, the oxaliplatin cytotoxicity [10] was “lesser increase” and the “cytotoxic effect of oxaliplatin” value ([11]; mesna 100 μM in combination with oxaliplatin vs oxaliplatin alone controls) was “markedly enhanced”. For the same compound, the “cytotoxic effect of paclitaxel” value ([11]; mesna 100 μM in combination with paclitaxel vs paclitaxel alone controls) was “enhanced” and the “reduction of α-lipoic acid (TX/TXR substrate) or hydroxyethyldisulfide (GRX substrate) by whole cells” value [12] was “enhanced”.

In the case of `O=C(O)C(=O)O.[NH-][C@@H]1CCCC[C@H]1[NH-].[Pt+2]` [oxaliplatin], the “inhibition of TXR” value [1] is given as “irreversibly inhibited” and the “inhibition of GR” value [8] is given as “not GR”.

For `N.N.[Cl][Pt+2][Cl]` [transplatin], the “inhibition of TXR” value [1] is given as “irreversibly inhibited” and the “inhibition of GR” value [8] is given as “not GR”.
